# According to US8377981B2, “CBI derivatives subject to reductive activation” (The Scripps Research Institute, priority 2007, dated 2013):
# Read-outs that look alike come from different tables or passages of the source.
# Key:
# [1] = test system: H460 (mitomycin-sensitive, expresses high levels of DT-Diaphorase) non small cell lung cancer (NSCLC) cell line; test: Cytotoxic activity, H460 cell line; assay type: cell-based
# Procedure: (§1) The O-amino phenol derivatives bearing the N—O prodrug linkages and the various N-acyl substituents were assayed for cytotoxic activity alongside the parent drugs CBI-TMI (2) (Boger, D. L.; Yun, W. J. Am. Chem. Soc. 1994, 116, 7996) and mitomycin C (Boger, D. L.; et al. Bioorg. Med. Chem. Lett. 1991, 1, 115; Boger, D. L.; et al. Bioorg. Med. Chem. 1995, 3, 1429) as well as the two control standards 9 and 10 incapable of free phenol release. Three cell lines were examined including a standard L1210 cell line (mouse leukemia) as well as the mitomycin-sensitive (H460, expresses high levels of DT-Diaphorase) and resistant (H596, lacks DT-Diaphorase) non small cell lung cancer (NSCLC) cell lines, with results shown in the Table below.
# [2] = test system: H596 (mitomycin-resistant, lacks DT-Diaphorase) non small cell lung cancer (NSCLC) cell line; test: Cytotoxic activity, H596 cell line; assay type: cell-based
# Procedure: as §1
# [3] = test system: L1210 cell line (mouse leukemia); test: Cytotoxic activity, L1210 cell line; assay type: cell-based
# Procedure: as §1
# [4] = test system: L1210 murine leukemia implanted i.p. into DBA/2J mice; test: In vivo antitumor activity, second site (neat DMSO, terminated after 120 days); set-up: species or system mouse; settings: for Surviving Mice: still living after 120 days
# Procedure: Confirming these observations, an analogous antitumor assessment was carried out independently at a second site utilizing a slightly different and harsher protocol for drug administration (neat DMSO vs 30% DMSO in 0.1% glucose).
# In the above Table, the second column is the dose in mg/kg of body weight of the animal that is administered i.p. (into the intraperitoneal cavity) on days 1, 5, and 9. The surviving mice are the number of mice that are still living after 120 days and the experiment was then terminated.
# An analogous study with 10 mice per group was performed at the University of Kansas with the distinction that the compounds were administered in neat DMSO (0, 10, 30, 60, 100 µg/kg wt. of animal) and the study was terminated after 120 days.
# [5] = test system: L1210 murine leukemia implanted i.p. into DBA/2J mice; test: In vivo antitumor activity, L1210 i.p. in DBA/2J mice (30% DMSO in 0.1% glucose); set-up: species or system mouse; settings: for Surviving Mice: 365 days; for weight loss of treated animals: days 30-100, highest dosing
# Text: The prodrug 8 was examined for in vivo efficacy alongside the parent drug 3 in a standard antitumor model enlisting L1210 murine leukemia implanted i.p. into DBA/2J mice. This model has been reported to respond well to the parent drugs of related compounds (Li, L. H.; et al. Invest. New Drugs 1991, 9, 137) and is a system that collaborators through the years have used to assess an extensive series of (+)-CBI-indole2 analogues. Although not published, these latter studies provided the foundation on which examination of 8 is based.
# With use the dose range (10-100 μg/kg) and the dosing schedule (administered three times i.p. on days 1, 5, and 9) found suitable for related parent drugs including (+)-CBI-indole2 (3) (Boger, D. L.; et al. Bioorg. Med. Chem. Lett. 1991, 1, 115; Boger, D. L.; et al. Bioorg. Med. Chem. 1995, 3, 1429), the prodrug 8 was examined as is shown in the Table below.
# DBA/2J mice were purchased from Jackson Laboratory (Bar Harbor, Me.) and housed in the animal facility at The Scripps Research Institute. L1210 tumor cells, originally isolated from DBA/2 mice, were cultured in DMEM medium containing 5% fetal calf serum. For tumor implantation, DBA/2J mice were i.p. injected with 1×10^5 L1210 cells at day 0.
# Compounds 3 and 8 were formulated with 30% DMSO plus 0.1% glucose solution. Treatment doses of drugs (0, 10, 30, 100 µg/kg wt. of animal) were i.p. injected consecutively on day 1, 5 and 9. The study was performed with six mice per group. Tumor growth in the peritoneal cavity was monitored daily and the death of animals was recorded. If necessary, weights of animals were measured once a week. To date this monitoring of the animals has lasted 365 days.
# [6] = Chemical stability and reactivity of the N-acyl O-amino phenol derivatives; assay type: physicochemical; settings: for stability to acidic conditions: TFA-CH2Cl2, 4 N HCl-EtOAc
# [7] = Homo sapiens, NCI-H460, read-out: IC50 (nM) H460
# [8] = unnatural enantiomer series, CBI-TMI derivatives, read-out: IC50 (nM) H460
# [9] = Homo sapiens, NCI-H596, read-out: IC50 (nM) H596
# [10] = unnatural enantiomer series, CBI-TMI derivatives, read-out: IC50 (nM) H596
# [11] = Mus musculus, L1210, read-out: IC50 (nM) L1210, natural enantiomer series, CBI-TMI derivatives
# [12] = unnatural enantiomer series, CBI-TMI derivatives, read-out: IC50 (nM) L1210
# [13] = unnatural enantiomer series, CBI-indole2 derivatives, read-out: IC50 (nM) H460
# [14] = Homo sapiens, NCI-H596, natural enantiomer series, CBI-indole2 derivatives, read-out: IC50 (nM) H596
# [15] = unnatural enantiomer series, CBI-indole2 derivatives, read-out: IC50 (nM) H596
# [16] = 10 μg/kg i.p. days 1, 5, 9, neat DMSO
# [17] = 30 μg/kg i.p. days 1, 5, 9, neat DMSO
# [18] = 60 μg/kg i.p. days 1, 5, 9, neat DMSO
# [19] = 100 μg/kg i.p. days 1, 5, 9, neat DMSO
# [20] = unnatural enantiomer series, CBI-indole2 derivatives, read-out: IC50 (nM) L1210
compound,measurement,setting,value
"COc1cc2cc(C(=O)N3C[C@@H](CCl)c4c3cc(O)c3ccccc43)[nH]c2c(OC)c1OC [Compound 2, seco-CBI-TMI, reference compound]",IC50,[1]; [7],0.5 nM
same,IC50,[1]; [8],50 nM
same,fold lower sensitivity of H596 than H460,[2]; H596 versus H460,10 fold
same,IC50,[2]; [9],5 nM
same,IC50,[2]; [10],300 nM
same,IC50,[3]; [11],0.04 nM
same,IC50,[3]; [12],5 nM
"O=C(Nc1ccc2[nH]c(C(=O)N3C[C@@H](CCl)c4c3cc(O)c3ccccc43)cc2c1)c1cc2ccccc2[nH]1 [Compound 3, seco-CBI-indole2, reference compound]",IC50,"[1]; Homo sapiens, NCI-H460, natural enantiomer series, CBI-indole2 derivatives, read-out: IC50 (nM) H460",0.2 nM
same,IC50,[1]; [13],6 nM
same,IC50,[2]; [14],2 nM
same,IC50,[2]; [15],40 nM
same,Mean Survival Period (MSP),[4]; [16],>60 days
same,Treated/Control (MSP × 100),[4]; [16],>271
same,Surviving Mice,[4]; 10 μg/kg,3/10
same,Mean Survival Period (MSP),[4]; [17],>65 days
same,Treated/Control (MSP × 100),[4]; [17],>295
same,Surviving Mice,[4]; 30 μg/kg,3/10
same,Mean Survival Period (MSP),[4]; [18],>71 days
same,Treated/Control (MSP × 100),[4]; [18],>324
same,Surviving Mice,[4]; 60 μg/kg,3/10
same,Mean Survival Period (MSP),[4]; [19],11 days
same,Treated/Control (MSP × 100),[4]; [19],52
same,Surviving Mice,[4]; 100 μg/kg,0/10
same,Mean Survival Period (MSP),"[5]; 10 μg/kg i.p. days 1, 5, 9",34 days
same,Treated/Control (MSP × 100),"[5]; 10 μg/kg i.p. days 1, 5, 9",170
same,Surviving Mice,"[5]; 10 μg/kg i.p. days 1, 5, 9",0/6
same,Mean Survival Period (MSP),"[5]; 30 μg/kg i.p. days 1, 5, 9",>115 days
same,Treated/Control (MSP × 100),"[5]; 30 μg/kg i.p. days 1, 5, 9",>580
same,Surviving Mice,"[5]; 30 μg/kg i.p. days 1, 5, 9",1/6
same,Mean Survival Period (MSP),"[5]; 100 μg/kg i.p. days 1, 5, 9",125 days
same,Treated/Control (MSP × 100),"[5]; 100 μg/kg i.p. days 1, 5, 9",625
same,Surviving Mice,"[5]; 100 μg/kg i.p. days 1, 5, 9",0/6
same,weight loss of treated animals,[5],weight loss that was evident
same,fate of surviving mice at day 90,[5]; prolonged management beyond day 90,eventually expired due to drug administration related complications
same,IC50,"[3]; Mus musculus, L1210, natural enantiomer series, CBI-indole2 derivatives, read-out: IC50 (nM) L1210",0.03 nM
same,IC50,[3]; [20],0.7 nM
COc1cc2cc(C(=O)N3C[C@@H](CCl)c4c3cc(ONC(C)=O)c3ccccc43)[nH]c2c(OC)c1OC [Compound 5],stability on long term storage,[6],withstanding even long term storage effectively
same,IC50,[1]; [7],0.7 nM
same,IC50,[2]; [9],7 nM
same,IC50,[3]; [11],0.3 nM
COc1cc2cc(C(=O)N3C[C@@H](CCl)c4c3cc(ON(C(C)=O)C(=O)OC(C)(C)C)c3ccccc43)[nH]c2c(OC)c1OC [Compound 6],stability to acidic conditions,[6],surprisingly robust to acidic conditions
same,IC50,[1]; [7],0.6 nM
same,IC50,[2]; [9],5 nM
same,IC50,[3]; [11],0.2 nM
COc1cc2cc(C(=O)N3CC(CCl)c4c3cc(ON3C(=O)c5ccccc5C3=O)c3ccccc43)[nH]c2c(OC)c1OC (stereo not shown) [Compound 7],IC50,[1]; [8],600 nM
same,IC50,[2]; [10],6000 nM
same,IC50,[3]; [12],60 nM
COc1cc2cc(C(=O)N3C[C@@H](CCl)c4c3cc(ON3C(=O)c5ccccc5C3=O)c3ccccc43)[nH]c2c(OC)c1OC [Compound 7],stability to acidic conditions,[6],surprisingly robust to acidic conditions
same,stability on long term storage,[6],noticeably deteriorating over time
same,IC50,[1]; [7],0.5 nM
same,IC50,[2]; [9],5 nM
same,IC50,[3]; [11],0.06 nM
CC(C)(C)OC(=O)NOc1cc2c(c3ccccc13)[C@H](CCl)CN2C(=O)c1cc2cc(NC(=O)c3cc4ccccc4[nH]3)ccc2[nH]1 [Compound 8],IC50,[1]; [7],0.3 nM
same,IC50,[2]; [14],4 nM
same,Mean Survival Period (MSP),[4]; [16],>46 days
same,Treated/Control (MSP × 100),[4]; [16],>210
same,Surviving Mice,[4]; 10 μg/kg,2/10
same,Mean Survival Period (MSP),[4]; [17],>51 days
same,Treated/Control (MSP × 100),[4]; [17],>232
same,Surviving Mice,[4]; 30 μg/kg,2/10
same,Mean Survival Period (MSP),[4]; [18],>93 days
same,Treated/Control (MSP × 100),[4]; [18],>425
same,Surviving Mice,[4]; 60 μg/kg,7/10
same,Mean Survival Period (MSP),[4]; [19],>63 days
same,Treated/Control (MSP × 100),[4]; [19],>288
same,Surviving Mice,[4]; 100 μg/kg,3/10
same,efficacy compared with free drug 3,"[4]; deaths due to the disease, tumor counts, tumor volume","comparable or superior in terms of reducing deaths due to the disease, tumor counts, and tumor volume"
same,toxicity of administration compared with free drug 3,"[4]; neat DMSO, 120 days",significantly less toxic than free drug 3
same,Mean Survival Period (MSP),"[5]; 10 μg/kg i.p. days 1, 5, 9",25 days
same,Treated/Control (MSP × 100),"[5]; 10 μg/kg i.p. days 1, 5, 9",120
same,Surviving Mice,"[5]; 10 μg/kg i.p. days 1, 5, 9",0/6
same,Mean Survival Period (MSP),"[5]; 30 μg/kg i.p. days 1, 5, 9",>145 days
same,Treated/Control (MSP × 100),"[5]; 30 μg/kg i.p. days 1, 5, 9",>730
same,Surviving Mice,"[5]; 30 μg/kg i.p. days 1, 5, 9",2/6
same,Mean Survival Period (MSP),"[5]; 100 μg/kg i.p. days 1, 5, 9",>310 days
same,Treated/Control (MSP × 100),"[5]; 100 μg/kg i.p. days 1, 5, 9",>1550
same,Surviving Mice,"[5]; 100 μg/kg i.p. days 1, 5, 9",5/6
same,weight loss of treated animals,[5],little or no weight loss
same,IC50,"[3]; Mus musculus, L1210, read-out: IC50 (nM) L1210, natural enantiomer series, CBI-indole2 derivatives",0.05 nM
same,IC50,"[3]; Mus musculus, L1210, text range over L1210 and H460, natural enantiomer",0.03 to 0.2 nM
same,potency compared with CBI-indole2 (3),[3]; in each cell line examined,essentially equipotent
same,times more active than mitomycin C,[3]; natural enantiomer,100-1000 times
same,fold less active than the natural enantiomer,[3]; unnatural enantiomer of prodrug 8,10-100 fold
"CO[C@@]12[C@H](COC(N)=O)C3=C(C(=O)C(C)=C(N)C3=O)N1C[C@@H]1N[C@@H]12 [mitomycin C, reference compound]",IC50,"[1]; natural enantiomer series, CBI-TMI derivatives, read-out: IC50 (nM) H460",20 nM
same,IC50,"[1]; natural enantiomer series, CBI-indole2 derivatives, read-out: IC50 (nM) H460",20 nM
same,IC50,[1]; [8],20 nM
same,IC50,[1]; [13],20 nM
same,IC50,"[2]; mitomycin-resistant H596 cell line, read-out: IC50",5000 nM
same,IC50,"[2]; natural enantiomer series, CBI-TMI derivatives, read-out: IC50 (nM) H596",5000 nM
same,IC50,"[2]; natural enantiomer series, CBI-indole2 derivatives, read-out: IC50 (nM) H596",5000 nM
same,IC50,[2]; [10],5000 nM
same,IC50,[2]; [15],5000 nM
same,IC50,"[3]; natural enantiomer series, CBI-TMI derivatives, read-out: IC50 (nM) L1210",40 nM
same,IC50,"[3]; natural enantiomer series, CBI-indole2 derivatives, read-out: IC50 (nM) L1210",40 nM
same,IC50,"[3]; text range over L1210 and H460, read-out: IC50",20 to 40 nM
same,IC50,[3]; [12],40 nM
same,IC50,[3]; [20],40 nM
